Patent US8563714B2, “Bridged spiro [2.4] heptane derivatives as ALX receptor and/or FPRL2 agonists” (Actelion Pharmaceuticals Ltd., priority 2009, dated 2013)

Experiments:
human FPRL2 = target: T1, human FPRL2 (Homo sapiens, UniProt P25089); test: Intracellular calcium measurements (FLIPR), agonistic activity in HEK293-hFPRL2-Gα16 cells; assay type: cell-based; details: Fluo-4 calcium FLIPR, normalized to GLY14-Humanin 100 nM
T1 construct: expressed in transfected cells; host or cells: HEK293 (HEK293-hFPRL2-Gα16)
T1 sequence (P25089 1-353): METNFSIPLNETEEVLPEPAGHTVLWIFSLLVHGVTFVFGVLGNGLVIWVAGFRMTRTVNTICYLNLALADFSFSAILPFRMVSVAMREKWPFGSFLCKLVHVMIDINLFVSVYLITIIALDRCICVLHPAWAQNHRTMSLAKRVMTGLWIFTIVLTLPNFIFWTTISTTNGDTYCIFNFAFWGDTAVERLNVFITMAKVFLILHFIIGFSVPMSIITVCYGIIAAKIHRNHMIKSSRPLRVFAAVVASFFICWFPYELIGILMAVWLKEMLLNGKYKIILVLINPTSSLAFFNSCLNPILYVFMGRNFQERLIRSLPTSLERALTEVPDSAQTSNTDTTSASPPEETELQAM
How it was run: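 Peak values after baseline subtraction are expressed relative to 100 nM Gly14-Humanin; compounds diluted in assay buffer from 10 mM DMSO stocks.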

human ALX receptor = target: T2, human ALX receptor (Homo sapiens, UniProt P25090); test: Intracellular calcium measurements (FLIPR), agonistic activity in HEK293-hALXR-Gα16 cells; assay type: cell-based; details: Fluo-4 calcium FLIPR, normalized to WKYMVm 10 nM
T2 construct: expressed in transfected cells; host or cells: HEK293 (HEK293-hALXR-Gα16)
T2 sequence (P25090 1-351): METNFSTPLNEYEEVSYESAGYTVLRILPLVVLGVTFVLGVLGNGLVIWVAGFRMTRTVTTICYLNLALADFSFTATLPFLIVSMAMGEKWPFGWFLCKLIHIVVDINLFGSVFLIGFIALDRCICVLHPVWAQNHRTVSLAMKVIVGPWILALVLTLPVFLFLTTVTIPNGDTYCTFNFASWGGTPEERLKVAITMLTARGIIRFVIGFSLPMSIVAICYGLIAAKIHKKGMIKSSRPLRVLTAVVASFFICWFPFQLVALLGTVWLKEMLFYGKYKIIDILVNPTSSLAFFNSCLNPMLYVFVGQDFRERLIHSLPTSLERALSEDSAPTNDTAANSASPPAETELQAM
How it was run: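 Agonist-induced calcium flux was recorded by FLIPR (488/540 nm) in HEK293-hALXR-Gα16 cells pre-loaded with Fluo-4 AM (1 μM, 60 min, 37°C). Peak signal above baseline, after subtracting buffer addition, was expressed relative to WKYMVm at 10 nM final.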

Row | Compound | EC50 (human FPRL2) | EC50 (human ALX receptor)
1 | CC(=O)c1ncc(CNC(=O)[C@H]2[C@H](C(=O)NCCCCN3CCCC3)[C@H]3C=C[C@@H]2C32CC2)s1 (racemic) [Example 224, (5R*)—N^5-(2-Acetyl-thiazol-5-yl-methyl)-(6R*)—N^6-(4-pyrrolidin-1-yl-butyl)-(4S*,7R*)-[4,7-ethenylene-spiro[2.4]heptane]-5,6-dicarboxamide] | 1860 nM | 994 nM
2 | COc1cc(F)c(CNC(=O)[C@H]2[C@H](C(=O)NCCCCN3CCCC3)[C@H]3C=C[C@@H]2C32CC2)c(F)c1 (racemic) [Example 226, (5R*)—N^5-(2,6-Difluoro-4-methoxy-phenyl-methyl)-(6R*)—N^6-(4-pyrrolidin-1-yl-butyl)-(4S*,7R*)-[4,7-ethenylene-spiro[2.4]heptane]-5,6-dicarboxamide] | 356 nM | 912 nM
3 | COc1ccc(CNC(=O)[C@H]2[C@H](C(=O)NCCCCN3CCCC3)[C@H]3C=C[C@@H]2C32CC2)cc1F (racemic) [Example 228, (5R*)—N^5-(3-Fluoro-4-methoxy-phenyl-methyl)-(6R*)—N^6-(4-pyrrolidin-1-yl-butyl)-(4S*,7R*)-[4,7-ethenylene-spiro[2.4]heptane]-5,6-dicarboxamide] | 308 nM | 389 nM
4 | CC(C)Oc1ccc(CNC(=O)[C@H]2[C@H](C(=O)NCCCCN3CCCC3)[C@H]3C=C[C@@H]2C32CC2)cc1 (racemic) [Example 233, (5R*)—N^5-(4-Isopropoxy-phenyl-methyl)-(6R*)—N^6-(4-pyrrolidin-1-yl-butyl)-(4S*,7R*)-[4,7-ethenylene-spiro[2.4]heptane]-5,6-dicarboxamide] | 197 nM | 7220 nM
5 | O=C(NCCCCN1CCCC1)[C@H]1[C@H](C(=O)NCc2nc(Br)cs2)[C@@H]2C=C[C@H]1C21CC1 (racemic) [Example 234, (5R*)—N^5-(4-Bromo-thiazol-2-yl-methyl)-(6R*)—N^6-(4-pyrrolidin-1-yl-butyl)-(4S*,7R*)-[4,7-ethenylene-spiro[2.4]heptane]-5,6-dicarboxamide] | 176 nM | 73 nM
6 | CC(=O)c1nc(CNC(=O)[C@H]2[C@H](C(=O)NCCCCN3CCCC3)[C@H]3C=C[C@@H]2C32CC2)co1 (racemic) [Example 235, (5R*)—N^5-(2-Acetyl-oxazol-4-yl-methyl)-(6R*)—N^6-(4-pyrrolidin-1-yl-butyl)-(4S*,7R*)-[4,7-ethenylene-spiro[2.4]heptane]-5,6-dicarboxamide] | 181 nM | 153 nM
7 | O=C(NCCCN1CCCC1)[C@H]1[C@H](C(=O)NCc2ccc(Br)cc2)[C@@H]2C=C[C@H]1C21CC1 (racemic) [Example 236, (5R*)—N^5-(4-Bromo-phenyl-methyl)-(6R*)—N^6-(3-pyrrolidin-1-yl-propyl)-(4S*,7R*)-[4,7-ethenylene-spiro[2.4]heptane]-5,6-dicarboxamide] | 292 nM | 49 nM
8 | O=C(NCCCN1CCCC1)[C@H]1[C@H](C(=O)Nc2ncc(Br)s2)[C@@H]2C=C[C@H]1C21CC1 (racemic) [Example 237, (5R*)—N^5-(5-Bromo-thiazol-2-yl)-(6R*)—N^6-(3-pyrrolidin-1-yl-propyl)-(4S*,7R*)-[4,7-ethenylene-spiro[2.4]heptane]-5,6-dicarboxamide] | 542 nM | 305 nM
9 | CC(=O)c1coc(CNC(=O)[C@H]2[C@H](C(=O)NCCCCN3CCCC3)[C@H]3C=C[C@@H]2C32CC2)n1 (racemic) [Example 243, (5R*)—N^5-(4-Acetyl-oxazol-2-yl-methyl)-(6R*)—N^6-(4-pyrrolidin-1-yl-butyl)-(4S*,7R*)-[4,7-ethenylene-spiro[2.4]heptane]-5,6-dicarboxamide] | 2300 nM | 170 nM
10 | CC(=O)c1csc(CNC(=O)[C@H]2[C@H](C(=O)NCC(C)C)[C@H]3C=C[C@@H]2C32CC2)n1 (racemic) [Example 244, (5R*)—N^5-(4-Acetyl-thiazol-2-yl-methyl)-(6R*)—N^6-(isobutyl)-(4S*,7R*)-[4,7-ethenylene-spiro[2.4]heptane]-5,6-dicarboxamide] | > 25000 nM | 369 nM
11 | CC(C)CNC(=O)[C@H]1[C@H](C(=O)NCc2ccc(Br)cc2)[C@@H]2C=C[C@H]1C21CC1 (racemic) [Example 246, (5R*)—N^5-(4-Bromo-phenyl-methyl)-(6R*)—N^6-(isobutyl)-(4S*,7R*)-[4,7-ethenylene-spiro[2.4]heptane]-5,6-dicarboxamide] | 5330 nM | 191 nM
12 | CC(=O)c1csc(CNC(=O)[C@H]2[C@H](C(=O)NCCCc3nc4ccccc4[nH]3)[C@H]3C=C[C@@H]2C32CC2)n1 (racemic) [Example 247, (5R*)—N^5-(4-Acetyl-thiazol-2-yl-methyl)-(6R*)—N^6-(3-(1H-benzoimidazol-2-yl)-propyl)-(4S*,7R*)-[4,7-ethenylene-spiro[2.4]heptane]-5,6-dicarboxamide] | 1080 nM | 106 nM
13 | O=C(NCCCc1nc2ccccc2[nH]1)[C@H]1[C@H](C(=O)Nc2ncc(Br)s2)[C@@H]2C=C[C@H]1C21CC1 (racemic) [Example 248, (5R*)—N^5-(5-Bromo-thiazol-2-yl)-(6R*)—N^6-(3-(1H-benzoimidazol-2-yl)-propyl)-(4S*,7R*)-[4,7-ethenylene-spiro[2.4]heptane]-5,6-dicarboxamide] | 3060 nM | 174 nM
14 | COc1ccc(NC(=O)[C@H]2[C@H](C(=O)NCCCCN3CCCC3)[C@H]3C=C[C@@H]2C32CC2)cn1 (racemic) [Example 250, (5R*)—N^5-(2-Methoxy-pyrid-5-yl)-(6R*)—N^6-(4-pyrrolidin-1-yl-butyl)-(4S*,7R*)-[4,7-ethenylene-spiro[2.4]heptane]-5,6-dicarboxamide] | 746 nM | 673 nM

The next molecules have a lower EC50 (human FPRL2) than those just listed; values first:

Row | EC50 (human FPRL2) | EC50 (human ALX receptor) | Compound
15 | 89 nM | 290 nM | COc1ccc(CNC(=O)[C@H]2[C@H](C(=O)NCCCCN3CCCC3)[C@H]3C=C[C@@H]2C32CC2)c(F)c1F (racemic) [Example 227, (5R*)—N^5-(2,3-Difluoro-4-methoxy-phenyl-methyl)-(6R*)—N^6-(4-pyrrolidin-1-yl-butyl)-(4S*,7R*)-[4,7-ethenylene-spiro[2.4]heptane]-5,6-dicarboxamide]
16 | 67 nM | 119 nM | COc1c(F)cc(CNC(=O)[C@H]2[C@H](C(=O)NCCCCN3CCCC3)[C@H]3C=C[C@@H]2C32CC2)cc1F (racemic) [Example 229, (5R*)—N^5-(3,5-Difluoro-4-methoxy-phenyl-methyl)-(6R*)—N^6-(4-pyrrolidin-1-yl-butyl)-(4S*,7R*)-[4,7-ethenylene-spiro[2.4]heptane]-5,6-dicarboxamide]
17 | 65 nM | 31 nM | O=C(NCCCCN1CCCC1)[C@H]1[C@H](C(=O)NCc2ccc(Cl)cc2)[C@@H]2C=C[C@H]1C21CC1 (racemic) [Example 230, (5R*)—N^5-(4-Chloro-phenyl-methyl)-(6R*)—N^6-(4-pyrrolidin-1-yl-butyl)-(4S*,7R*)-[4,7-ethenylene-spiro[2.4]heptane]-5,6-dicarboxamide]
18 | 159 nM | 514 nM | O=C(NCCCCN1CCCC1)[C@H]1[C@H](C(=O)NCc2ccc(F)cc2)[C@@H]2C=C[C@H]1C21CC1 (racemic) [Example 231, (5R*)—N^5-(4-Fluoro-phenyl-methyl)-(6R*)—N^6-(4-pyrrolidin-1-yl-butyl)-(4S*,7R*)-[4,7-ethenylene-spiro[2.4]heptane]-5,6-dicarboxamide]
19 | 112 nM | 1260 nM | O=C(NCCCCN1CCCC1)[C@H]1[C@H](C(=O)NCc2ccc(OC(F)(F)F)cc2)[C@@H]2C=C[C@H]1C21CC1 (racemic) [Example 232, (5R*)—N^5-(4-Trifluoromethoxy-phenyl-methyl)-(6R*)—N^6-(4-pyrrolidin-1-yl-butyl)-(4S*,7R*)-[4,7-ethenylene-spiro[2.4]heptane]-5,6-dicarboxamide]
20 | 47 nM | 216 nM | O=C(NCCCc1nc2ccccc2[nH]1)[C@H]1[C@H](C(=O)NCc2ccc(Br)cc2)[C@@H]2C=C[C@H]1C21CC1 (racemic) [Example 249, (5R*)—N^5-(4-Bromo-phenyl-methyl)-(6R*)—N^6-(3-(1H-benzoimidazol-2-yl)-propyl)-(4S*,7R*)-[4,7-ethenylene-spiro[2.4]heptane]-5,6-dicarboxamide]
